Tested on: T lymphocytes
Assay: Intracellular Ca2+ signalling in single adherent T lymphocytes loaded with Indo-1 (real-time fluorescence)
Format: cell-based, human
Conditions: 7 μM ionomycin; Indo-1-loaded T cells; data not shown
Method: Early events of intracellular Ca^2+ signalling after EPR-1 occupancy were characterized in real-time fluorescence measurements at the single cell level (Altieri, et al., Biochem. J. 288: 465 (1992)). Freshly isolated T lymphocytes were attached onto Cell-Tak-(Biopolymers, Farmington, Conn.)-coated optical grade glass coverslips (22 mm^2 diameter and <[…] thickness), and loaded intracellularly with 1 μM of the Ca^2+ -sensitive fluorescent dye Indo-1/AM (Grynkiewicz, et al., J. Biol. Chem. 260: 3440 (1985)) (Calbiochem) in 145 mM NaCl, 5 mM KCl, 1 mM Na2 HPO4, 2.5 mM CaCl2, 10 mM glucose, 25 mM HEPES, 0.5 mM MgSO4 for 45 minutes at 37° C. Cells were gently washed in the same loading buffer, and analyzed in real time fluorescence measurements in digitalized imaging using the interactive laser cytometer ACAS 470, as described (Altieri, et al., Id. (1992)). […] After 125 seconds from the addition of the primary mAb, 50 μg/ml aliquots of goat anti-mouse F(ab')2 fragments were added as a cross-linking reagent, and fluorescence changes in the target cells were monitored continuously during a 3-minute interval. Changes in cytosolic free [Ca^2+ ]i under the various conditions tested are expressed as ratio of Detector 1 (free Indo-1, 485 nm wavelength)/Detector 2 (Indo-1:Ca^2+ complex, 405 nm wavelength).

C[C@H](CCC(=O)O)C[C@H](C)C[C@H](C)C(=O)/C=C(\O)[C@H](C)C[C@H](C)C/C=C/[C@@H](C)[C@@H](O)[C@@H](C)[C@@H](O)C[C@@H]1CC[C@@](C)([C@H]2CC[C@@](C)([C@@H](C)O)O2)O1 [ionomycin]
cytosolic free [Ca2+]i response: large and sustained increase

— patent US6238875A, “Diagnostic methods useful in the characterization of lymphoproliferative disease characterized by increased EPR-1” (The Scripps Research Institute, priority 1994, dated 2001)
